Data taken from PubChem BioAssay (NCI).
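Briefly, cells in 96-well plates were exposed to five compound concentrations for 48 h, and endpoints were estimated by linear interpolation. The concentration for full growth arrest is given as TGI.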

Columns and labels:
Assay in all cases: NCI-60 cell line screen, 48 h
COLO 205 colon = test system: COLO 205 colon
SNB-75 CNS = test system: SNB-75 CNS
KM12 colon = test system: KM12 colon
NCI-H460 lung = test system: NCI-H460 lung
RPMI-8226 leukemia = test system: RPMI-8226 leukemia
UACC-62 melanoma = test system: UACC-62 melanoma
HS 578T breast = test system: HS 578T breast
MCF7 breast = test system: MCF7 breast
BT-549 breast = test system: BT-549 breast
SK-OV-3 ovarian = test system: SK-OV-3 ovarian
MOLT-4 leukemia = test system: MOLT-4 leukemia
NCI-H522 lung = test system: NCI-H522 lung
MDA-N = test system: MDA-N
HOP-92 NSCLC = test system: HOP-92 NSCLC
SR leukemia = test system: SR leukemia
CCRF-CEM leukemia = test system: CCRF-CEM leukemia
U251 CNS = test system: U251 CNS
HCT-15 colon = test system: HCT-15 colon
SN12C renal = test system: SN12C renal
MALME-3M melanoma = test system: MALME-3M melanoma
SF-268 CNS = test system: SF-268 CNS
IGROV1 ovarian = test system: IGROV1 ovarian
T-47D breast = test system: T-47D breast
HCT-116 colon = test system: HCT-116 colon
OVCAR-8 ovarian = test system: OVCAR-8 ovarian
EKVX NSCLC = test system: EKVX NSCLC
TK-10 renal = test system: TK-10 renal
NCI-H226 lung = test system: NCI-H226 lung
SF-295 CNS = test system: SF-295 CNS
SK-MEL-2 melanoma = test system: SK-MEL-2 melanoma
NCI-H23 lung = test system: NCI-H23 lung
HT29 colon = test system: HT29 colon
A549 NSCLC = test system: A549 NSCLC
CAKI-1 renal = test system: CAKI-1 renal
PC-3 prostate = test system: PC-3 prostate
LOX IMVI melanoma = test system: LOX IMVI melanoma
SK-MEL-28 melanoma = test system: SK-MEL-28 melanoma
SK-MEL-5 melanoma = test system: SK-MEL-5 melanoma
HL-60(TB) leukemia = test system: HL-60(TB) leukemia
UACC-257 melanoma = test system: UACC-257 melanoma
OVCAR-3 ovarian = test system: OVCAR-3 ovarian
K-562 leukemia = test system: K-562 leukemia
M14 melanoma = test system: M14 melanoma
786-0 renal = test system: 786-0 renal
DU-145 prostate = test system: DU-145 prostate
UO-31 renal = test system: UO-31 renal
SNB-19 CNS = test system: SNB-19 CNS
HOP-62 NSCLC = test system: HOP-62 NSCLC
OVCAR-4 ovarian = test system: OVCAR-4 ovarian
NCI/ADR-RES ovarian = test system: NCI/ADR-RES ovarian
RXF 393 renal = test system: RXF 393 renal
A498 renal = test system: A498 renal
ACHN renal = test system: ACHN renal
MDA-MB-435 = test system: MDA-MB-435
HCC-2998 colon = test system: HCC-2998 colon
OVCAR-5 ovarian = test system: OVCAR-5 ovarian
SW-620 colon = test system: SW-620 colon
MDA-MB-231 breast = test system: MDA-MB-231 breast

Compound: Cc1ccc(S(=O)(=O)N/N=C2/C3C(CC2(C)C)C2(C)CCCC3(C)C2O)cc1 (stereo not given)
- TGI (COLO 205 colon): 31.8 µM
- TGI (SNB-75 CNS): 39.3 µM
- TGI (KM12 colon): 35.1 µM
- TGI (NCI-H460 lung): 37.7 µM
- TGI (RPMI-8226 leukemia): > 100 µM
- TGI (UACC-62 melanoma): 30 µM
- TGI (HS 578T breast): 55.6 µM
- TGI (MCF7 breast): 43.2 µM
- TGI (BT-549 breast): 31 µM
- TGI (SK-OV-3 ovarian): 44.8 µM
- TGI (MOLT-4 leukemia): 57.6 µM
- TGI (NCI-H522 lung): 44.5 µM
- TGI (MDA-N): 37.9 µM
- TGI (HOP-92 NSCLC): 33.3 µM
- TGI (SR leukemia): > 100 µM
- TGI (CCRF-CEM leukemia): 59.4 µM
- TGI (U251 CNS): 32.1 µM
- TGI (HCT-15 colon): 60 µM
- TGI (SN12C renal): 36.5 µM
- TGI (MALME-3M melanoma): 45.4 µM
- TGI (SF-268 CNS): > 100 µM
- TGI (IGROV1 ovarian): 69.8 µM
- TGI (T-47D breast): 54.5 µM
- TGI (HCT-116 colon): 33.9 µM
- TGI (OVCAR-8 ovarian): > 100 µM
- TGI (EKVX NSCLC): > 100 µM
- TGI (TK-10 renal): > 100 µM
- TGI (NCI-H226 lung): 35.3 µM
- TGI (SF-295 CNS): 29.6 µM
- TGI (SK-MEL-2 melanoma): 45.8 µM
- TGI (NCI-H23 lung): 42.8 µM
- TGI (HT29 colon): 39.6 µM
- TGI (A549 NSCLC): 63.7 µM
- TGI (CAKI-1 renal): > 100 µM
- TGI (PC-3 prostate): 29.7 µM
- TGI (LOX IMVI melanoma): 27.4 µM
- TGI (SK-MEL-28 melanoma): 40.4 µM
- TGI (SK-MEL-5 melanoma): 28.8 µM
- TGI (HL-60(TB) leukemia): > 100 µM
- TGI (UACC-257 melanoma): 33.3 µM
- TGI (OVCAR-3 ovarian): > 100 µM
- TGI (K-562 leukemia): > 100 µM
- TGI (M14 melanoma): 56.3 µM
- TGI (786-0 renal): 45.3 µM
- TGI (DU-145 prostate): > 100 µM
- TGI (UO-31 renal): > 100 µM
- TGI (SNB-19 CNS): 96.5 µM
- TGI (HOP-62 NSCLC): > 100 µM
- TGI (OVCAR-4 ovarian): 43.3 µM
- TGI (NCI/ADR-RES ovarian): 94.6 µM

Compound: CN1C(=O)CN=C(c2ccccc2F)c2cc(N=C=S)ccc21
- TGI (SNB-75 CNS): > 100 µM
- TGI (KM12 colon): > 100 µM
- TGI (NCI-H460 lung): > 100 µM
- TGI (UACC-62 melanoma): > 100 µM
- TGI (HS 578T breast): > 100 µM
- TGI (MCF7 breast): > 100 µM
- TGI (RXF 393 renal): 87.7 µM
- TGI (A498 renal): > 100 µM
- TGI (BT-549 breast): > 100 µM
- TGI (ACHN renal): > 100 µM
- TGI (SK-OV-3 ovarian): > 100 µM
- TGI (NCI-H522 lung): 45.2 µM
- TGI (MDA-N): > 100 µM
- TGI (HOP-92 NSCLC): > 100 µM
- TGI (CCRF-CEM leukemia): > 100 µM
- TGI (U251 CNS): > 100 µM
- TGI (HCT-15 colon): > 100 µM
- TGI (SN12C renal): > 100 µM
- TGI (MALME-3M melanoma): > 100 µM
- TGI (SF-268 CNS): > 100 µM
- TGI (IGROV1 ovarian): > 100 µM
- TGI (T-47D breast): > 100 µM
- TGI (HCT-116 colon): > 100 µM
- TGI (MDA-MB-435): > 100 µM
- TGI (OVCAR-8 ovarian): > 100 µM
- TGI (EKVX NSCLC): > 100 µM
- TGI (TK-10 renal): > 100 µM
- TGI (SF-295 CNS): > 100 µM
- TGI (SK-MEL-2 melanoma): > 100 µM
- TGI (NCI-H23 lung): > 100 µM
- TGI (HT29 colon): > 100 µM
- TGI (A549 NSCLC): > 100 µM
- TGI (HCC-2998 colon): > 100 µM
- TGI (CAKI-1 renal): 25.2 µM
- TGI (PC-3 prostate): > 100 µM
- TGI (LOX IMVI melanoma): > 100 µM
- TGI (HL-60(TB) leukemia): > 100 µM
- TGI (UACC-257 melanoma): > 100 µM
- TGI (OVCAR-5 ovarian): > 100 µM
- TGI (OVCAR-3 ovarian): > 100 µM
- TGI (M14 melanoma): > 100 µM
- TGI (786-0 renal): > 100 µM
- TGI (SW-620 colon): > 100 µM
- TGI (DU-145 prostate): > 100 µM
- TGI (UO-31 renal): > 100 µM
- TGI (SNB-19 CNS): > 100 µM
- TGI (HOP-62 NSCLC): > 100 µM
- TGI (OVCAR-4 ovarian): > 100 µM
- TGI (NCI/ADR-RES ovarian): > 100 µM
- TGI (MDA-MB-231 breast): > 100 µM
